According to ChEMBL document CHEMBL1201862, “PubChem BioAssay data set” (2004):
Activity calls are given as the source filed them.

Columns and labels:
Type in all cases: functional
[1] = test system: H4; assay: Luminescence Cell-Based Dose Response HTS to Identify Activators of 5'UTR Stem-Loop Driven Prion Protein mRNA Translation in H4 Neuroglioblastoma Cells. [Related pubchem assays: 1829 (Project Summary), 1814 (Primary HTS)]; conditions: Homo sapiens
[2] = Luminescence Cell-Based Dose Response HTS to Identify Activators of Luciferase Translation or Activity in H4 […] Cells. [Related pubchem assays: 1829 (Project Summary), 1814 (Primary HTS)]
[3] = molecular target: STE20-like serine/threonine-protein kinase (Homo sapiens, UniProt Q9H2G2)
[4] = molecular target: Casein kinase II subunit alpha (Homo sapiens, UniProt P68400)
[5] = molecular target: Homeodomain-interacting protein kinase 4 (Homo sapiens, UniProt Q8NE63)
[6] = molecular target: Homeodomain-interacting protein kinase 2 (Homo sapiens, UniProt Q9H2X6);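 further: measured within a kinome-wide kinase profiling panel, HIPK2 being one panel member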
Chain of Homeodomain-interacting protein kinase 2 (Q9H2X6 whole entry): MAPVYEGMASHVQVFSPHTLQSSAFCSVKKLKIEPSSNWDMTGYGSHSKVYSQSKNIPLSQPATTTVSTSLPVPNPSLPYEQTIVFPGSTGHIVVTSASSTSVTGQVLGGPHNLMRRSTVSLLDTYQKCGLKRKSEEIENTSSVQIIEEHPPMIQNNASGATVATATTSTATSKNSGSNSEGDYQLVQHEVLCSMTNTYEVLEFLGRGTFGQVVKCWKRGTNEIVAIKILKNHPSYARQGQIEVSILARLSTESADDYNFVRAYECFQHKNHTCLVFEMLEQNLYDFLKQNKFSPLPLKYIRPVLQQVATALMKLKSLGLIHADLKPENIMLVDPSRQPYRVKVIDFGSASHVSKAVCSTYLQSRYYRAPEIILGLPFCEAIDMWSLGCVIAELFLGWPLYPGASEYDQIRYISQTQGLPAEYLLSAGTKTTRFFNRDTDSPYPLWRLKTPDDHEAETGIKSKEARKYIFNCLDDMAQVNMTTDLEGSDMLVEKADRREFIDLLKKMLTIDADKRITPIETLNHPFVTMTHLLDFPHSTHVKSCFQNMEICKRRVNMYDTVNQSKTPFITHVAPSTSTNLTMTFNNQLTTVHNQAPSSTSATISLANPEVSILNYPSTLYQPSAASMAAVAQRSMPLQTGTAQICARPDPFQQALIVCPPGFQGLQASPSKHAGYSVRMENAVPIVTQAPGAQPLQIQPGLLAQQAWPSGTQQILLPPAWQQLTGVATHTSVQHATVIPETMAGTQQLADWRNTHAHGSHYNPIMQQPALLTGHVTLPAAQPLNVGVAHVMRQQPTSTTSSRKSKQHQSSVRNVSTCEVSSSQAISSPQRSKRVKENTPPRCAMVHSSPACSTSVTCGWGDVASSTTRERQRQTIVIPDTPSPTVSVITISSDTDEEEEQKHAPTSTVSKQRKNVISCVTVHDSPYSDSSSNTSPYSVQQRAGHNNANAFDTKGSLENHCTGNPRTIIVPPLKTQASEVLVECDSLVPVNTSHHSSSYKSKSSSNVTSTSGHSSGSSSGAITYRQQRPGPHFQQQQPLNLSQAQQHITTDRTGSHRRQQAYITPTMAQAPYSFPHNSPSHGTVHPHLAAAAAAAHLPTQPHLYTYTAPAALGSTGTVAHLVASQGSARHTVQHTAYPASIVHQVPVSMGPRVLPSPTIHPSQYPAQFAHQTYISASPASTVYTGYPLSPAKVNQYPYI

[7] = molecular target: cGMP-dependent protein kinase 1 (Homo sapiens, UniProt Q13976);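 further: value from a kinome panel screen with PRKG1 as the panel member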
[8] = molecular target: 3-phosphoinositide-dependent protein kinase 1 (Homo sapiens, UniProt O15530);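 further: value comes from the Navigating the Kinome panel, PDPK1 member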
[9] = molecular target: Protein kinase C gamma type (Homo sapiens, UniProt P05129)
[10] = molecular target: Serine/threonine-protein kinase PAK 4 (Homo sapiens, UniProt O96013);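 further: value obtained within a kinome profiling panel in which PAK4 was one of the panel members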
[11] = molecular target: Tyrosine-protein kinase Blk (Homo sapiens, UniProt P51451);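 further: obtained as one member of a kinome-wide kinase assay panel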
[12] = molecular target: Receptor tyrosine-protein kinase erbB-4 (Homo sapiens, UniProt Q15303);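 further: ERBB4 member of a kinome-wide kinase profiling panel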
[13] = molecular target: Misshapen-like kinase 1 (Homo sapiens, UniProt Q8N4C8);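 further: kinome panel screen with MINK as the panel member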
[14] = molecular target: Mast/stem cell growth factor receptor Kit (Homo sapiens, UniProt P10721);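 further: KIT entry within a kinase panel assay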
[15] = molecular target: Serine/threonine-protein kinase pim-3 (Homo sapiens, UniProt Q86V86);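 further: value obtained as one member of a broad kinase panel profiling effort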
[16] = molecular target: Receptor-type tyrosine-protein kinase FLT3 (Homo sapiens, UniProt P36888);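 further: FLT3 was tested as one member of a kinome-wide kinase panel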
Chain of Receptor-type tyrosine-protein kinase FLT3 (P36888 whole entry): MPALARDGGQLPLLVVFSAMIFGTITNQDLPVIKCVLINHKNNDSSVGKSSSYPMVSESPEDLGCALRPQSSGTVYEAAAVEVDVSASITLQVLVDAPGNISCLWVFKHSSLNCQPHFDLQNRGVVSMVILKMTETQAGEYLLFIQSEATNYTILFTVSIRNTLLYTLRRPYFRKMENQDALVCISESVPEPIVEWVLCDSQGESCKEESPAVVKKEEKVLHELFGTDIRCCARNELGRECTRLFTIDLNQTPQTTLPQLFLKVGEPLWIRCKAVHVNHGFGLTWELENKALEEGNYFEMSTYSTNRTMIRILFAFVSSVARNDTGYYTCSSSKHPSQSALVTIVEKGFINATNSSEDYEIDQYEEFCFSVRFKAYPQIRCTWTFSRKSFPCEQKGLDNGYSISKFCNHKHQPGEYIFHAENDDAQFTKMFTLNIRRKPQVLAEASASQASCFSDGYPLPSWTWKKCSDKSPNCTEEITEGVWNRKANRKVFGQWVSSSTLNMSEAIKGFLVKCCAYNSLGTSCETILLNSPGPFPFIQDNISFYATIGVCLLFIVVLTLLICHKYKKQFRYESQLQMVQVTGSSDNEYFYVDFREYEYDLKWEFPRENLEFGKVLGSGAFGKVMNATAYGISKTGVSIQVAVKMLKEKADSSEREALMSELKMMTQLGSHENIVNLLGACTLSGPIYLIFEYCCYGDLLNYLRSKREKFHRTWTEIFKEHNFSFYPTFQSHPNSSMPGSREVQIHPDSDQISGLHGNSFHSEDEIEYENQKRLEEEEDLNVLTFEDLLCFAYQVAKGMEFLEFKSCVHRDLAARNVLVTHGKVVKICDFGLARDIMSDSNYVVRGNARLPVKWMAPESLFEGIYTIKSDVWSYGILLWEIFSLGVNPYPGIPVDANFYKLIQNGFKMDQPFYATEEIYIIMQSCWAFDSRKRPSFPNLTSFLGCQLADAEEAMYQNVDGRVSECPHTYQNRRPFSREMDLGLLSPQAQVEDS

[17] = molecular target: Serine/threonine-protein kinase 3 (Homo sapiens, UniProt Q13188);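 further: measured as one member of a kinome-wide kinase panel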
[18] = molecular target: Serine/threonine-protein kinase Nek4 (Homo sapiens, UniProt P51957)
[19] = molecular target: Proto-oncogene tyrosine-protein kinase Src (Homo sapiens, UniProt P12931);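 further: SRC entry within a kinome-wide kinase profiling panel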
[20] = molecular target: Serine/threonine-protein kinase Nek2 (Homo sapiens, UniProt P51955)
[21] = molecular target: Hepatocyte growth factor receptor (Homo sapiens, UniProt P08581);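 further: kinase panel profiling across the kinome, with MET as the panel member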
[22] = molecular target: Calcium/calmodulin-dependent protein kinase type II subunit gamma (Homo sapiens, UniProt Q13555)
[23] = molecular target: Ribosomal protein S6 kinase beta-1 (Homo sapiens, UniProt P23443);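 further: measured as one member of a kinome-wide profiling panel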
[24] = molecular target: Serine/threonine-protein kinase Chk2 (Homo sapiens, UniProt O96017);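 further: CHEK2 entry within a kinome-wide screening panel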
[25] = molecular target: Dual specificity tyrosine-phosphorylation-regulated kinase 3 (Homo sapiens, UniProt O43781);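 further: measured as one member of a broad kinase panel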
Chain of Dual specificity tyrosine-phosphorylation-regulated kinase 3 (O43781 whole entry): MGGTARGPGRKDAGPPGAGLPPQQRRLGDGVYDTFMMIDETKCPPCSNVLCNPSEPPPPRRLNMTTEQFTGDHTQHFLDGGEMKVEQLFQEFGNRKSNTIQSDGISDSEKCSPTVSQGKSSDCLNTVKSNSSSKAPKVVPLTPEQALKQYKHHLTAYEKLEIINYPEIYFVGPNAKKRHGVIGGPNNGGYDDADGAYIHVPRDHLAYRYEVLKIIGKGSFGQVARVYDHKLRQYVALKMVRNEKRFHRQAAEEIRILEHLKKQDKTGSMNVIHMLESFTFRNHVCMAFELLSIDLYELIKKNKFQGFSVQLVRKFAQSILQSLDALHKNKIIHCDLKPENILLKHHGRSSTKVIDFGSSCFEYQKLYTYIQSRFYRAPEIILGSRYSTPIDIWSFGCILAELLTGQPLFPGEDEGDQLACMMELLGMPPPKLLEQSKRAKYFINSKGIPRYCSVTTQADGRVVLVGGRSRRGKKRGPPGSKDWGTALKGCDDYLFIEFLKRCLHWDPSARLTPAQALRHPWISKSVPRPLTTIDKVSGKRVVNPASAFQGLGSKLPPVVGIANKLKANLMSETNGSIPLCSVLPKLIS

[26] = molecular target: Serine/threonine-protein kinase PLK4 (Homo sapiens, UniProt O00444);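 further: PLK4 measured as one member of a kinome-wide kinase profiling panel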
[27] = molecular target: Ribosomal protein S6 kinase alpha-3 (Homo sapiens, UniProt P51812);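 further: measured within a kinome-wide profiling panel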
Chain of Ribosomal protein S6 kinase alpha-3 (P51812 whole entry): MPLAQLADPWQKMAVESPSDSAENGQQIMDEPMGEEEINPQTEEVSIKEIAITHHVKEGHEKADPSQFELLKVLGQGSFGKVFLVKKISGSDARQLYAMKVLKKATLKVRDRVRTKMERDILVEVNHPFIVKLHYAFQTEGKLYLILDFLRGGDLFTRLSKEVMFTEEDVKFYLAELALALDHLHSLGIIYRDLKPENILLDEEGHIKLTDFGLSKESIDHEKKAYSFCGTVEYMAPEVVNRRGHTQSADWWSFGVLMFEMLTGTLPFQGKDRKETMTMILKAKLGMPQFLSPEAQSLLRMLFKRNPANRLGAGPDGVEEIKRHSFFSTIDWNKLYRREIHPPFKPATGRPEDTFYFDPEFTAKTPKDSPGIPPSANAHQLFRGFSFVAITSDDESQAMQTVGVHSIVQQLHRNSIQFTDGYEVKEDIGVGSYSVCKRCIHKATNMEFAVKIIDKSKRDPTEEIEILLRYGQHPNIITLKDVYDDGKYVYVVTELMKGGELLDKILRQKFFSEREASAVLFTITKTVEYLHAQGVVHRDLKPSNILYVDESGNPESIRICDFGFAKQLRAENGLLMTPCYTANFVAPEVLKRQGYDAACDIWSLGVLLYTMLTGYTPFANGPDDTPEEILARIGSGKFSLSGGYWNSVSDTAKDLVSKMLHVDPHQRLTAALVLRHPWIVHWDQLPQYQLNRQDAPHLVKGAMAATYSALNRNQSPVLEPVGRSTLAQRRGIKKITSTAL

[28] = molecular target: Inhibitor of nuclear factor kappa-B kinase subunit epsilon (Homo sapiens, UniProt Q14164); assay: Navigating the Kinome. Panel member name: IKBKE
[29] = molecular target: Serine/threonine-protein kinase TBK1 (Homo sapiens, UniProt Q9UHD2); assay: Navigating the Kinome. Panel member name: TBK1
[30] = molecular target: Macrophage-stimulating protein receptor (Homo sapiens, UniProt Q04912); assay: Navigating the Kinome. Panel member name: MST1R
Chain of Macrophage-stimulating protein receptor (Q04912 25-304 limits assumed): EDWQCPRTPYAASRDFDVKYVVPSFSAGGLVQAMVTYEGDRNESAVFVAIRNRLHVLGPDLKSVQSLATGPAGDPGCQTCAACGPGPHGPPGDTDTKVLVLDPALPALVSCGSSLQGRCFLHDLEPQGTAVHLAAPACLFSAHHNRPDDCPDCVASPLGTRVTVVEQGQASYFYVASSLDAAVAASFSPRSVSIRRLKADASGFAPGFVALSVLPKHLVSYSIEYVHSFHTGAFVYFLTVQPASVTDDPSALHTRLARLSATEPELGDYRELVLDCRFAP
Chain of Macrophage-stimulating protein receptor (Q04912 310-1400 limits assumed): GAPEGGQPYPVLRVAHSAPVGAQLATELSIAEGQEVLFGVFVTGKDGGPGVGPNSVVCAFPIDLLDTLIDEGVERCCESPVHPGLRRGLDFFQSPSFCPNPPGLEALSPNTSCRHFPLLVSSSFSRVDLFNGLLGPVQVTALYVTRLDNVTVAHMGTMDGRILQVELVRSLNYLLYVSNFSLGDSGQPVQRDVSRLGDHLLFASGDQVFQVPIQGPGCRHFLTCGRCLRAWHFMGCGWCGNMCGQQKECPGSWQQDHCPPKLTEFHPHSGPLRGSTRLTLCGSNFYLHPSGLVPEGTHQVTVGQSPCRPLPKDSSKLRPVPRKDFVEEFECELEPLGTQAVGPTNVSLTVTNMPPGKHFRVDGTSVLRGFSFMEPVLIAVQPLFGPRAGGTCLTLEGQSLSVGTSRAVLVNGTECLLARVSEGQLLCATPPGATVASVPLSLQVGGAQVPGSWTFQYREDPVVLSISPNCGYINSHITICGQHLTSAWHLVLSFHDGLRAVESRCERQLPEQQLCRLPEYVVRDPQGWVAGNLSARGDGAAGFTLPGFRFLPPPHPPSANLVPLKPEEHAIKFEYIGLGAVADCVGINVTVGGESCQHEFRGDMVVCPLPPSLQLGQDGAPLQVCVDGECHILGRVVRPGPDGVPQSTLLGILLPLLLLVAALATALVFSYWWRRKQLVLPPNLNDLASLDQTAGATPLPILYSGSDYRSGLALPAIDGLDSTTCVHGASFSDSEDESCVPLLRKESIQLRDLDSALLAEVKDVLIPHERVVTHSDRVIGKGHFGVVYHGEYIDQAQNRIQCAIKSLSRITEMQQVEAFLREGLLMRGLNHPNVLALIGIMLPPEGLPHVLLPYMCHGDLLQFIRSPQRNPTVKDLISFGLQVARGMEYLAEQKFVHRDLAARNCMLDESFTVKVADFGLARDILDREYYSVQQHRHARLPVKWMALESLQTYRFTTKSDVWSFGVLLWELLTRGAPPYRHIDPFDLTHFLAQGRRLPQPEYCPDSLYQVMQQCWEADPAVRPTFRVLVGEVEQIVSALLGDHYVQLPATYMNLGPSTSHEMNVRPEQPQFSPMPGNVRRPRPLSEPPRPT

[31] = molecular target: Dual specificity protein kinase CLK4 (Homo sapiens, UniProt Q9HAZ1)
[32] = molecular target: Eukaryotic elongation factor 2 kinase (Homo sapiens, UniProt O00418)
[33] = molecular target: Protein kinase C zeta type (Homo sapiens, UniProt Q05513);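 further: measured as one member of a broad kinase profiling panel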
[34] = molecular target: LIM domain kinase 1 (Homo sapiens, UniProt P53667); assay: Navigating the Kinome. Panel member name: LIMK1

Row | Compound | Ki [4] | Ki [5] | Ki [6] | Ki [8] | Ki [9] | Ki [10] | Ki [11] | Ki [12] | Ki [15] | Ki [16] | Ki [20] | Ki [21] | Ki [25] | Ki [27] | Ki [28] | Ki [29] | Ki [30] | Ki [31] | further results
1 | O=C1C2=[N+]([O-])[C@H]3CCCC[C@H]3[N+]([O-])=C2c2ccccc21 | – | – | – | – | – | – | – | – | – | – | – | – | – | – | – | – | – | – | EC50 [1]: 23.5 µM (active); EC50 [2]: 14.9 µM (active)
2 | NC1CCC(Nc2nccc(-c3c[nH]c4ncccc34)n2)CC1 (configuration not stated) | 2.51 µM (active) | 2.51 µM (active) | 15.8 nM (active) | 1.26 µM (active) | 0.158 µM (active) | 0.316 µM (active) | > 1.58 µM (inactive) | > 3.98 µM (inactive) | 0.2 µM (active) | 0.0631 µM (active) | > 10 µM (inactive) | > 3.16 µM (inactive) | 0.0631 µM (active) | 0.00501 µM (active) | – | – | – | – | Ki [3]: 398 nM (active); Ki [7]: 100 nM (active); Ki [13]: 251 nM (active); Ki [14]: > 1.26 µM (inactive); Ki [17]: 39.8 nM (active); Ki [18]: 2 µM (active); Ki [19]: > 2 µM (inactive); Ki [22]: 3.98 nM (active); Ki [23]: 501 nM (active); Ki [24]: > 1.58 µM (inactive); Ki [26]: > 3.98 µM (inactive)
3 | OCc1cc(-c2ccc3[nH]ncc3c2)on1 | – | – | – | – | – | – | – | – | – | – | 39.8 µM (active) | 31.6 µM (active) | – | – | 20 µM (active) | 50.1 µM (active) | 39.8 µM (active) | 31.6 nM (active) | –
4 | COC(C(=O)N1Cc2[nH]nc(NC(=O)c3ccc(N4CCN(C)CC4)cc3)c2C1)c1ccccc1 (configuration not stated) | > 6.31 µM (inactive) | > 7.94 µM (inactive) | > 3160 nM (inactive) | > 3.98 µM (inactive) | > 7.94 µM (inactive) | – | 0.0398 µM (active) | > 3.98 µM (inactive) | > 7.94 µM (inactive) | – | – | – | > 6.31 µM (inactive) | – | – | – | – | – | Ki [32]: > 3.98 µM (inactive); Ki [33]: > 7.94 µM (inactive)
5 | CC(C)(O)c1cn(-c2ccc3[nH]ncc3c2)nn1 | – | – | – | – | – | 100 µM (active) | – | – | – | 50.1 µM (active) | – | – | – | 39.8 µM (active) | 31.6 µM (active) | 79.4 µM (active) | 39.8 µM (active) | 79.4 nM (active) | Ki [34]: 15.8 µM (active)
